For data set [1] the following is noted: CXlogD at pH 7.4 ref https://ebi.ac.uk (02.04.2024); cited from earlier work.
For the next data set, the system named is PC3 cells. The note with it: 1500 µM for 24 h ref 60; cited from earlier work.
Data set [2] deals with JAK1, TRAF2 and RELA mRNA in TR146 cells. The experiment in a line: qPCR of JAK1, TRAF2 and RELA after inflammation study. The class given is cell-based, human. The note with it: 48 h. As for the experimental part:
® were seeded with cells as described above. […] Prior to treating cells with prepared DMEM solutions, TEER was measured in cultivation media DMEM supplemented with 1% Penicillin/Streptomycin and 10% Fetal Calf Serum. Subsequently, cell layers and blanks were washed with DMEM (without supplements) twice on the apical and basolateral compartment, followed by TEER measurements in DMEM. Media of cells were replaced with previously prepared DMEM solutions. Control media was applied on the blanks. After 48 h treatment at 37 °C, 5% CO2 and 95% humidity TEER was measured. […] Media were immediately collected and measured for the RFU content using the EnSpire as described above. Afterwards, media were stored at -20 °C until further usage. […] For qPCR, samples were analysed as triplicates using the LightCycler480 II (Roche) with the program described in Lin et al. with primers for 18SrRNA (5'-3' forward: [NT], 5'-3' reverse: [NT], Janus Kinase 1 transcript variant a (JAK1tva) (5'-3' forward: [NT], 5'-3' reverse: [NT], JAK1tvb (5'-3' forward: [NT], 5'-3' reverse: [NT], JAK1tvc (5'-3' forward: [NT], 5'-3' reverse: [NT] Receptor Associated Factor 2 (TRAF2) tvb (5'-3' forward: [NT], 5'-3' reverse: […]2tvc (5'-3' forward: [NT], 5'-3' reverse: [NT] and nuclear factor κB (NF-κB) RelA (forward 5'-3': [NT], reverse 5'-3': […]

Data set [3] is described as follows: Transport study across blank inserts without cells. As to conditions: Ibuprofen study, mean ± SD. The protocol: First, TEER was measured in cultivation media on the day of experiment. Afterwards, cells and blanks were washed twice with DMEM on the apical (300 µL) and basolateral (900 µL) compartments and selected cells and blanks were treated with DMEM with or without 100 µM probenecid or verapamil on the apical and basolateral side at 37 °C for 30 min. […] To cells which were pre-incubated with probenecid or verapamil, 100 µM probenecid or verapamil was applied apically as well. DMSO content was adapted for cells with no inhibitors, and DMSO and dd-H2O content was adjusted in the basolateral compartment as well in order to apply the same vehicle concentrations on the apical and basolateral compartment. […] Subsequently, duplicates of apical sample were collected, and samples were frozen at −80 °C until further analysis with High-Performance Liquid Chromatography (HPLC).
Mean values of relative fluorescence unit (RFU) or detected area [mAU × min] were used for calculation. For the first timepoint, the clearance [µL] for the detected area was calculated as shown in the formula below (1a), with Abasot1 as the measured area [mAU × min] at the first time point of the basolateral sample, Vbaso as the basolateral volume [µL] and Astock as the area measured for the applied stock solution. […] Clearance [µL] for carboxyfluorescein was calculated with the same formulas using RFU. (1a) Clearance=Abasot1×Vbaso/AStock (1b) Clearancetn=Abasotn×Vbaso/AStock−∑(Abasotn−1 ×3− Abasot1 ×3)
Cleared volume [µL] was calculated by plotting the sum of clearance at all time points over time [min]. The resulting slope PS [µL/min] was calculated inversely. For calculation of the PScell, the inverse PS blanks were subtracted, as shown below in Formula (2). (2) 1/PScell=1/PSall−1/PSblank

A short description of the next data set: in vitro. The note with it: human, not told, permeability coefficient, without probenecid.

A word on the Papp A→B: it is how fast a substance crosses the layer from the apical side. Take `CC(C)Cc1ccc(C(C)C(=O)O)cc1` (stereo not shown) [ibuprofen]: the XlogD in data set [1] is reported as 1.34. Also, the COX-2 expression entry with PC3 cells is “upregulation of COX-2”. Besides, in data set [2] (100 µM ibuprofen with inflammatory cytokines, p < 0.05), the “RELA mRNA expression” value is “inhibit the increase in RELA”. Besides, in data set [2] (cytokines 100 ng/mL each, ibuprofen 100 µM added during inflammation), the “JAK1 and TRAF2 mRNA expression” value is listed as “did not block the upregulation”. In addition, the results for the PS blank in data set [3] (Probenecid), in data set [3] (Verapamil) and in data set [3] (w/o Inhibitor) were 0.22 ± 0.02 µL/min, 0.21 ± 0.02 µL/min and 0.21 ± 0.03 µL/min, respectively. Besides, the Papp A→B at 4 h is 33.4 ×10⁻⁶ cm/s in “in vitro” (cell layers pre-treated with cytokines 48 h, 4 h transport); 35.1 ×10⁻⁶ cm/s in “in vitro” (cell layers pre-treated with cytokines plus ibuprofen 48 h, 4 h transport); 24 ×10⁻⁶ cm/s in “in vitro” (control cell layers, 4 h transport after 48 h).

The values above are taken from PMC11054638, “Transport of Non-Steroidal Anti-Inflammatory Drugs across an Oral Mucosa Epithelium In Vitro Model” (Pharmaceutics, 2024).
